Source: ChEMBL document CHEMBL1140962, “An efficient tool for identifying inhibitors based on 3D-QSAR and docking using feature-shape pharmacophore of biologically active conformation--a case study with CDK2/cyclinA” (Eur J Med Chem, 2008)

Molecular target: Cyclin-dependent kinase 2 (Homo sapiens, UniProt P24941)
Test: Inhibition of CDK2/Cyclin A

COc1ccccc1C(=O)Nc1cc(C2CC2)[nH]n1
IC50 (read-out: IC50): > 10000 nM

O=C(Cc1ccc(-c2ccccc2)c(F)c1)Nc1cc(C2CC2)n[nH]1
IC50 (read-out: IC50): 4 nM
IC50 (read-out: pIC50 (converted)): 4 nM

CCCC(=O)Nc1cc(C)[nH]n1
IC50 (read-out: IC50): > 10000 nM

CC(C)(C)c1cc(NC(=O)c2ccc(Br)cc2)n[nH]1
IC50 (read-out: IC50): > 10000 nM

O=C(Nc1cc(C2CCCCC2)[nH]n1)c1ccc(Br)cc1
IC50 (read-out: IC50): 10000 nM

O=C(Nc1cc(C2CC2)[nH]n1)c1ccccc1Cl
IC50 (read-out: IC50): 10000 nM

O=C(Nc1cc(C2CC2)[nH]n1)c1c(Cl)cccc1Cl
IC50 (read-out: IC50): > 10000 nM

O=C(Cc1ccc(Cc2cccs2)cc1)Nc1cc(C2CC2)n[nH]1
IC50 (read-out: IC50): 3 nM
IC50 (read-out: pIC50 (converted)): 3 nM

O=C(Nc1cc(Cc2ccccc2)[nH]n1)c1ccc(Br)cc1
IC50 (read-out: IC50): > 10000 nM

Cc1cc(CC(=O)Nc2cc(C3CC3)[nH]n2)ccc1-c1ccccc1
IC50 (read-out: IC50): 9 nM
IC50 (read-out: pIC50 (converted)): 8.99 nM

CO[C@@H](C(=O)Nc1cc(C2CC2)n[nH]1)c1ccccc1
IC50 (read-out: IC50): > 10000 nM

O=C(Nc1cc(-c2ccccc2)[nH]n1)c1ccc(Br)cc1
IC50 (read-out: IC50): > 10000 nM
